Like-named read-outs stand apart in the source and are kept apart here. Bridge positions count the residues as written; N and C are the ends. Peptide text beside a SMILES is read from it.
Columns and labels:
[1] = test system: production of the toxins of Staphylococcus aureus 04018 strain (MDBK cells readout); type: cell-based; conditions: for Cell survival (%) / inhibitory effect on the production of the toxins of Staphylococcus aureus (in words): MDBK cells; for MDBK cell OD (M ± SD): OD 595 nm, MTT; for inhibitory effect on the production of the toxins of Staphylococcus aureus (in words): peptide in normal saline (MRK as suspension)
Experimental: For the determination method for inhibitory level on the toxins of Staphylococcus aureus, please refer to literatures. (Yang G, et al. A novel peptide screened by phage display can mimic TRAP antigen epitope against Staphylococcus aureus infections. J Biol. Chem. 2005, 280: 27431-27435), details are as follows:
1) Staphylococcus aureus strain 04018 frozen in refrigerator is scribbed to a blood plate or BHI plate; cultured in an incubator for 16 hours until monoclonal colony is observed in the plate, and placed in a 4° C. refrigerator for standby use.
2) After 8 hours, the monoclonal colony in the plate is randomly selected, 25 mL test tubes of the BHI medium is inoculated with the monoclonal colony; and then the two test tubes are shook in a shaking table at a temperature of 37° C. at a speed of 200 rpm, the bacteria are collected after 16 hours, the bacteria solution in the two test tubes are mixed evenly for standby use.
3) The chemosynthetic peptide MRK and MRG and the positive control (the toxins of Staphylococcus aureus inhibitor protein TP) are dissolved in normal saline, diluted to different concentrations, and added to bacteria BHI medium. The final concentrations of small peptides are 0, 1.5, 5, 15, 50, 150 and 500 μg/mL respectively. The solvent control is the same amount of normal saline; the negative control is the BHI medium of Staphylococcus aureus; and a normal cell control is also provided.
4) The chemosynthetic peptides of different concentrations are co-incubated with Staphylococcus aureus 04018 and cultured for 6 hours, and then bacteria are collected. 700 μL bacterial suspensions are added to EP tubes, centrifuged at 8000 rpm for 5 min, supernatants are obtained, boiled at a temperature of 100° C. for 7 min, and centrifuged at a speed of 14000 rpm for 10 min. 10 μL supernatants are taken, added into a 96-microwell cell culture plate inoculated with 1×10<5>/mL MDBK cells. After continuous culture for 18-20 hours, 5 μL MTT solution (5 mg/mL) is added to each microwell, 100 μL 10% SDS+0.01M HCl solution is added to each microwell after 3 hours. After culture in the incubator at a temperature of 37° C. for 20 hours, detection at 595 nm and reading are carried out by an enzyme-linked immunometricmeter.

[2] = test system: Staphylococcus aureus Newman strain; conditions: 5 mg/kg body weight, injected 30 minutes after infection; versus aseptic water control; one week
Experimental: 1) Preparation of Staphylococcus aureus Newman Solution
Newman monoclonal strain with hemolytic circles is selected, 3 mL BHI medium is inoculated with the strain, and the strain is shook overlight at a speed of 220 rpm and a temperature of 37° C.
1 mL overnight strain is centrifuged at a speed of 5000 rpm for 2 min, and the supernatant is removed.
20 mL aseptic PBS is added for resuspension at a speed of 5000 rpm for 5 min, and the supernatant is removed.
5 mL aseptic PBS resuspended bacteria is diluted to OD600=0.
2) Establishment of Model of Bacteremia and Determination of Polypeptide Activity in BALB/c Mice
BALB/c mice (female, 8 weeks) are subjected to intraperitoneal injection of anesthetic (1% pentobarbital) (200 μL for each mouse).
Newman solution (OD600=0.2, 100 μL for each mouse) is injected into retrobulbar venous plexus.
After 30 minutes of infection, 6 mice are injected with polypeptide at enterocoelia (0.5 mg/mL, 200 μL for each mouse) and 7 mice in control are injected with sterile water (200 μL for each mouse).
The times of the mouse in one week are recorded and used for drawing survival curves.

Compound	solubility	Cell survival (%) ([1]; 0.005 mg/mL peptide)	MDBK cell OD (M ± SD) ([1]; 0.005 mg/mL peptide)	Cell survival (%) ([1]; 0.05 mg/mL peptide)	MDBK cell OD (M ± SD) ([1]; 0.05 mg/mL peptide)	Cell survival (%) ([1]; 0.15 mg/mL peptide)	MDBK cell OD (M ± SD) ([1]; 0.15 mg/mL peptide)	inhibitory effect on the production of the toxins of Staphylococcus aureus (in words) [1]	death / survival rate in bacteremia (in words) [2]	inhibitory effect on toxin production compared with TP protein (positive control) ([1]; 5 μg/mL small peptide)
NC(=O)CC[C@@H]1NC(=O)[C@@H](N)CSSC[C@@H](C(=O)O)NC(=O)[C@H](Cc2ccc(O)cc2)NC(=O)[C@H](Cc2c[nH]c3ccccc23)NC(=O)[C@H](Cc2c[nH]cn2)NC(=O)[C@H](Cc2c[nH]c3ccccc23)NC(=O)[C@H](Cc2c[nH]c3ccccc23)NC(=O)[C@H](Cc2c[nH]cn2)NC1=O [MRK, CQHWWHWYC] (H-CQHWWHWYC-OH; disulfide 1-9)	< 100 µg/mL	25%	0.123 ± 0.011	20%	0.098 ± 0.014	35%	0.171 ± 0.001	could not inhibit the production of the toxins	good inhibitory effect on Staphylococcus aureus infection in vivo	
CH3(CH2)10CO-Gly-Cyclo(Cys-Gln-His-D-Trp-Trp-His-Trp-Tyr-Cys)-Arg-Arg-Arg-NH2 [MRG]		60%	0.296 ± 0.001	92%	0.454 ± 0.015	96%	0.473 ± 0.004	obvious protective effect on the proliferation inhibition of MDBK cells	survival rate is greatly improved	greater than that of TP protein

— patent publication US10905735B2 (priority 2016, dated 2021)
